The values below come from patent US20080139551A1, “TUMOR NECROSIS FACTOR ALPHA INHIBITORS AND THEIR USE IN THE TREATMENT OF HUMAN DISEASES” (AVANIR PHARMACEUTICALS, priority 2006, published 2008).

For one data set, the system named is TNF-alpha. The experiment in a line: TNF-alpha production in LPS-challenged mice, assayed by ELISA. Format: in vivo. As to conditions: Mus musculus, inhibition of TNF-alpha production, formulated in FS-1, oral gavage; for inhibition at 10 mg/kg: 10 mpk P.O. From the text:
Mice were challenged with LPS to produce TNF-alpha in vivo, and then assayed by ELISA after dosing with or without the TNF-alpha inhibitor (formulated in FS-1 and delivered through oral gavage).

A short description of data set [1]: In vitro incubation with liver microsomes of mouse, metabolite characterisation by HPLC/MS. It counts as in vitro ADME. The protocol: (§1) Stock solutions of NVP-VAQ996-NX-1 (2 mmol/L) were prepared in DMSO. Alamethicin solution was prepared (0.125 mmol/L) in water. Uridine 5′-diphosphoglucuronic acid (UDPGA) solution (24 mmol/L) was prepared in phosphate buffer 100 mM pH 7.4. In a further experiment 50 mmol/L gluthationic acid reduced (GSH) in phosphate buffer 100 mM pH 7.4 was added as second co-factor.
(§2) For the characterization of in vitro metabolites NVP-VAQ996-NX-1 was incubated at 37° C. for up to 60 minutes with liver microsomes from mouse and human (Table 3).
(§3) 3 μL liver microsomes, containing 20 mg protein/mL, were mixed with 417 μL phosphate buffer, 60 μL alamethicin solution and 60 μL UDPGA. To this reaction mixture 3 μL stock solution (2 mM in DMSO) of NVP-VAQ996-NX-1 was added and pre-incubated for 3 min at 37° C. After pre-incubation, the final reaction was started by addition of 60 μL of the nicotinamide-adenine-dinucleotide-phosphate (NADPH)-regenerating system, containing isocitrate-dehydrogenase (TU/mL), NADP (1 mmol/L), isocitrate (5 mmol/L). After 1 h, the reaction was stopped with 600 μL ice-cold acetonitrile. Experiments were conducted according to a generic protocol. The reaction mixture was stored at −80° C. The final set-up of the in vitro incubation is shown on Table 4.
(§4) Prior to use, the mixture was centrifuged (10000 g, 5 min) and 500 μL of 1 mL supernatant evaporated to dryness. […]
A general note: Microsomes from liver hold many membrane-bound enzymes, among them those of drug oxidation.

Data set [2] in a line: Metabolite identification in plasma after p.o. administration to mice. On the set-up: species or system Balb/c mice. As to conditions: in vivo in plasma after p.o. administration of 10 mg/kg to mice. The protocol:
Female Balb/c mice (Charles River) were housed under standard conditions with free access to food and drinking water throughout the experiment. The mice (n=4) were treated perorally with 10 mg/kg NVP-VAQ996-NX-1 (at 5 mL/kg) by gavage. At the allotted time points mice blood samples were obtained into heparinized tubes (30 IU/mL). The liver was removed intact, weighed and snap frozen before storage at −70° C. until analyzed.
(§5) For protein precipitation, to 100 μL plasma 100 μL ice-cold acetonitrile was added. This procedure was repeated twice during 1 hour and, after centrifugation (10000 g, 5 min), the supernatant was used for further preparation.
(§6) The solvent of the supernatant was evaporated using the Cyclone high speed evaporator (Prolab, Reinach, Switzerland) and the residue reconstituted with water/acetonitrile (95/5; v/v). An aliquot of the final solution was used for the high performance liquid chromatography/mass spectrometry (HPLC/MS) analyses.
(§7) The liquid chromatographic separation was performed using an Chorus-220 syringe pump (CS analytics, Beckenried, Switzerland) and a home-made glass capillary column, 150 mm×0.3 mm, filled with Nucleosil C18-HD, particle size 3.5 μm Gradient mobile phase programming was used with a flow rate of 4.5 μL/min. Eluent A was acetonitrile/water (5/95) 10 mM HCOONH4+0.02% trifluoroacetic acid (TFA). […]

A short description of data set [3]: In vitro incubation with liver microsomes of human, metabolite characterisation by HPLC/MS. Format: in vitro ADME. The method, then: as §1, §2, §3, §4
Data set [4] can be described thus: In vitro incubation in plasma from mice. It counts as in vitro ADME, Balb/c mice. As to conditions: heparinized mouse plasma, 5 μg/ml, 2 or 24 hrs at 37° C. The method, then: Heparinized mouse plasma was freshly obtained from Balb/c mice. Samples were incubated with 5 μg/ml NVP-VAQ996 added from a stock solution (1 mg/ml) in DMSO for 2 or 24 hrs at 37° C.
as §5, §6
as §7, with “(TFA). Eluent B was acetonitrile/methanol/water (9/5/5)+10 mM HCOONH4+0.02% TFA. The mobile phase was held 2 min. isocratic at 5% B, followed by a linear gradient from 15% B to 95% B over 30 min and a 5 min isocratic phase at 95% B. The column temperature was kept at 40° C.” for “(TFA).”

Take `CCOC(=O)c1c(N2CCNCC2)c2ccccc2n(Cc2ccc(F)cc2)c1=O` [Compound 101]: the inhibition at 10 mg/kg in the data set on TNF-alpha worked out at 43.4%.

Turning to `N#Cc1c(N2CCNCC2)c2ccccc2n(CC(=O)c2ccccc2)c1=O` [Compound 102], the inhibition at 10 mg/kg with TNF-alpha is 36.5%.

Molecule `Cc1ccc2c(c1)c(N1CCNCC1)c(C#N)c(=O)n2CC(=O)c1ccccc1` [Compound 103] displayed an inhibition at 10 mg/kg in the data set with TNF-alpha of 67.3%.

Molecule `Cc1ccc2c(c1)c(N1CCNCC1)c(C#N)c(=O)n2C` [Compound 105] registered an inhibition at 10 mg/kg in the data set with TNF-alpha of 21%.

As for `Cn1c(=O)c([N+](=O)[O-])c(N2CCNCC2)c2ccccc21` [Compound 108], the inhibition at 10 mg/kg in the data set on TNF-alpha worked out at 26.2%.

As for `CCOC(=O)c1c(N2CCNCC2)c2sccc2n(Cc2cccc(F)c2)c1=O` [Compound 113], the inhibition at 3 mg/kg with TNF-alpha (3 mg/kg P.O., read-out: % Inhibition (tested at 3 mg/kg)) was 84.1%.

As for `Cc1ccc2c(c1)c(N1CCN(C)CC1)c(C#N)c(=O)n2CC(=O)c1ccccc1` [Compound 114], the inhibition at 10 mg/kg in the data set on TNF-alpha worked out at 51.6%.

In the data set on TNF-alpha, `CC(=O)N1CCN(c2c(C#N)c(=O)n(CC(=O)c3ccccc3)c3ccc(C)cc23)CC1` [Compound 115] yielded an inhibition at 10 mg/kg of 41.3%.

Take `CN1CCN(c2c(C#N)c(=O)n(CC(=O)c3ccccc3)c3ccccc23)CC1` [Compound 116]: the inhibition at 10 mg/kg with TNF-alpha amounted to 29.4%.

Take `N#Cc1c(N2CCN(C(=O)c3cccs3)CC2)c2ccccc2n(CC(=O)c2ccccc2)c1=O` [NVP-VAQ996-NX]: the main metabolite result in data set [1] (after in vitro incubation with liver microsomes of mouse), in data set [2] and in data set [3] (after in vitro incubation with liver microsomes of human) was “NVP-VAR235-NX” in each case. Further, the “metabolic degradation with liver microsomes” value in data set [1] (mouse liver microsomes 0.1 mg/ml, 5 μM, 37° C., up to 60 min) is given as “high”; in data set [3] (human liver microsomes 0.1 mg/ml, 5 μM, 37° C., up to 60 min), “high”. Further, in data set [4], the “rate of degradation to metabolite ml in plasma” value was “high”.
